The record followed here is US4137224A (Schering Corporation, priority 1977, dated 1979).

Values after ≈ are worked out from the molar mass of the structure shown. Where two headings read alike, the source gives them in different places. *1 amine or outer side, *2 acyl side, *3 side chain or, on linkers, in order; H or OH if unused. Where a SMILES comes first, the peptide text is derived from it. Bridges are numbered along the chain shown (N, C = ends). [ ]: non-standard residue; d: D form. The star is where a group is joined. NMeT = CN[CH](C(=O)O)[CH](C)O; X1 = CCCCCCCCCCCC(O)CC(=O)*; X2 = CC=C(N[*:1])C(=O)[*:2]; X3 = OCC1OC(*)C(O)C(O)C1O

The subject of one series is Aeromonas sp. W-10. Kind of series: Resistance of Aeromonas sp. W-10 to antibacterial agents. It counts as cell-based. To be noted: in words. How it is done: The growth and physiological characteristics of Aeromonas sp. All observations were made after seven (7) days of incubation at 28° C. Color designations are assigned according to the classification in the Color Harmony Manual (1958), Container Corporation of America. The designates G, S, C and R used herein stand for growth, surface, color and reaction, respectively.

Series [1] deals with Saccharomyces cerevisiae ATCC 9763. Description: Agar diffusion assay against Antibiotic 20562 standard. It counts as cell-based. On the procedure: The broths are assayed against a standard solution of Antibiotic 20562 having an assigned potency of 1000 mcg/mg. The standard solution is diluted with 10% potassium phosphate buffer (pH 6.0) to make solutions having antibiotic concentrations of 3.2, 4.0, 5.0, 6.25 and 7.8 mcg/ml. The assay is performed substantially as set forth in the Federal Register, Title 21, Chapter 436.105.

Series [2] in a line: Toxicity (LD50), oral or subcutaneous administration. To be noted: in vivo.
Series [3] relates to Candida albicans. Kind of series: In vivo activity in mice infected intravenously with Candida albicans. On the set-up: species or system male CFl mice; Candida albicans. Conditions: 48 hours after infection, read-out: PD50. How it is done:
PD50 values were determined 48 hours after infection and are as follows: […]

In series [4] the test system is Trichophyton mentagrophytes. Kind of series: In vivo activity against Trichophyton mentagrophytes infection in guinea pigs. Conditions: 1% in polyethylene glycol 400, topical, twice daily for ten days. How it is done:
The skin of fifteen guinea pigs is abraided and infected with a standard culture of Trichophyton mentagrophytes. The infected animals are then separated into three groups containing five animals each. Suspensions containing 1% of the respective antibiotics in polyethylene glycol 400 are prepared. Two of the three groups are treated topically, twice daily for ten days commencing three days after infection. The third group (controls) remained untreated throughout the test. All of the animals are tested for infection by culture and observed for skin lesions for a total of 21 days.

Series [5] has as its system Candida albicans (Wisconsin strain). Description: Topical in vivo activity against Candida albicans intravaginal infection in hamsters. On the set-up: species or system female hamsters; Candida albicans. To be noted: three day treatment. How it is done: Using a culture of Candida albicans (Wisconsin strain), in Sabourrauds dextrose broth, infect intravaginally, five groups of six female hamsters. Forty-eight and seventy-two hours after infection, make smears of the infected animals and culture the smears. […] (96 hours after infection), make additional smears, culture and commence treatment. One group of six animals (controls) receives no treatment and, therefore, remains infected throughout the test. The remaining four groups of animals are treated with Antibiotic 20562, as 1%, 5%, 10% and 15% suspensions, respectively, the vehicle for suspension being administered on a cotton swab. At the end of the three day treatment the 1%, 5% and 10% groups are 60% cured, the 15% group is completely (100%) cured.

In series [6] the test system is Candida albicans. Description: In vitro MIC against strains of Candida albicans in Sabouraud dextrose broth. It counts as cell-based. On the procedure: Antibiotic 20562 was tested in vitro in Sabourraud dextrose broth against strains of Candida albicans, the Minimum Inhibitory Concentration (MIC) being set forth in Table IV below: […]
Setting [7] is: Example 2 step B, after chromatography.
Where [8] appears, read: Example 3 steps C and D, after chromatography.
The mark [9] stands for this setting: isolated antibiotics, crystalline from methanol.
Where [10] appears, read: sc, single subcutaneous dose one hour after infection.
Setting [11] is: single oral dose one hour after infection.

`CC(C)c1nc2nc(N)nc(N)c2nc1C(C)C` [0/129, 2,4-diamino-6,7-diisopropylpteridine]: the “sensitivity of Aeromonas sp. W-10 to the vibriostatic compound” value with Aeromonas sp. W-10 is recorded as “insensitive”.

Consider `CC=C(NC(=O)CC(O)CCCCCCCCCCC)C(=O)NC1C(=O)NC(C(C)O)C(=O)NC(Cc2ccc(O)cc2)C(=O)NC(=CC)C(=O)NC(CCC(N)=O)C(=O)NCC(=O)N(C)C(C(C)O)C(=O)NC(Cc2cnc[nH]2)C(=O)OC1C` (centres unmarked) [Antibiotic 20561] (X1-[X2]TTY[X2]QG[NMeT]H; ester 2-C; configuration not given here), for which the figures for the “assay (potency)” value in series [1] (setting [7]), in series [1] (setting [8]) and in series [1] (setting [9]) were 800 µg/mg, 800 µg/mg and “about 800 mcg/mg”, respectively. Also, the LD50 was 1000 mg/kg in series [2] (po) and greater than 1000 mg/kg in series [2] (sc). For the same compound, the ED50 came to 4 mg/kg in the series with Candida albicans [3] (setting [10]) and 25 mg/kg in the series on Candida albicans [3] (setting [11]). Further, the “Days to become negative, Culture” value in series [4] worked out at 4.8 days. Also, the “Days to become negative, Lesion” value in series [4] came to 6.3 days.

For `CC=C(NC(=O)CC(O)CCCCCCCCCCC)C(=O)NC1C(=O)NC(C(C)O)C(=O)NC(Cc2ccc(O)cc2)C(=O)NC(=CC)C(=O)NC(CCC(N)=O)C(=O)NCC(=O)N(C)C(C(C)OC2OC(CO)C(O)C(O)C2O)C(=O)NC(Cc2cnc[nH]2)C(=O)OC1C` (centres unmarked) [Antibiotic 20562] (X1-[X2]TTY[X2]QG[NMeT](X3)H; ester 2-C; configuration not given here), the “assay (potency)” value in series [1] (setting [7]) was 800 µg/mg; in series [1] (setting [8]), 1000 µg/mg; in series [1] (setting [9]), “about 1000 mcg/mg”. For the same compound, the cured amounted to 60% in series [5] (1% suspension), 60% in series [5] (5% suspension), 60% in series [5] (10% suspension) and 100% in series [5] (15% suspension). Besides, the MIC in the series on Candida albicans [6] (Candida albicans, strain Burke, read-out: MIC) was 0.075 µg/mL (≈ 0.0552 µM); against Candida albicans [6] (strain 29) it was 0.075 µg/mL (≈ 0.0552 µM); against Candida albicans [6] (strain Bevan), 0.075 µg/mL (≈ 0.0552 µM); against Candida albicans [6] (strain Collins), 0.075 µg/mL (≈ 0.0552 µM); against Candida albicans [6] (strain Fix), 0.075 µg/mL (≈ 0.0552 µM); in the series on Candida albicans [6] (strain Lush), 0.075 µg/mL (≈ 0.0552 µM). The MIC against Candida albicans [6] (strain Merkel), with Candida albicans [6] (strain Newcomb), against Candida albicans [6] (strain No. 1), against Candida albicans [6] (strain Raub), in the series with Candida albicans [6] (strain Sperk) and in the series on Candida albicans [6] (strain Wisconsin) was 0.075 µg/mL (≈ 0.0552 µM) each time. Also, the LD50 in series [2] (po) was 800 mg/kg; in series [2] (sc), 600 mg/kg. For the same compound, the ED50 in the series with Candida albicans [3] (setting [10]) worked out at 4 mg/kg; in the series with Candida albicans [3] (setting [11]), 25 mg/kg. The “Days to become negative, Culture” value in series [4] came out at 5.8 days. For the same compound, the “Days to become negative, Lesion” value in series [4] was 9.0 days.

What is called LD50 is the dose expected to kill half of the subjects tested. Low values mean a more toxic substance, high ones a less toxic substance. As a reminder, the MIC is the lowest concentration found to suppress growth.
